From patent publication US11124537B2, “Inhibitors of glucocorticoid receptor” (ORIC Pharmaceuticals, Inc., priority 2015, dated 2021) come the findings set out here.

Molecules are shown by their SMILES. A value given as a limit tells only on which side of the number the result lay.

The assay has as its target GR (Homo sapiens (Human), UniProt P04150). In words: In Vitro GR Luciferase Reporter Assay. In kind it is cell-based. Conditions: CHO-K1-GR-MMTV-Luc reporter cells, antagonist assay, 10 nM Dexamethasone, 18-24 hours. The source says: Example 4: In Vitro GR Luciferase Reporter Assay
Cell Line: CHO-K1-GR-MMTV-Luc reporter cells
Culture Media: DMEM (with phenol red)+10% FBS
Assay Media: DMEM (without phenol red)+10% CSS
Culture CHO-K1-GR-MMTV-Luc reporter cells in 15 cm plates in Culture Media at conditions less than 90% confluence.
Prepare 200×DMSO 1:5 serial dilutions of control and test compounds in 96-well non-sterile V bottom plate in DMSO, 8 serial dilutions for each compound.
Prepare 5× Assay Media diluted compound serial dilutions in 96-well non-sterile V bottom plate: Add 97.5 uL/well of Assay Media into 96-well then add 2.5 ul of 200× concentration of compounds and mix well.
Seed cells for Antagonist Assay: […] CHO-K1-GR-MMTV-Luc reporter cells were seeded in a Corning 3707 flat clear bottom 384-well white TC plate in 20 ul of Assay Media containing 12.5 nM Dexamethasone (final concentration=10 nM).
Add compounds: 5 ul of assay media diluted compounds were added to appropriate wells and followed a quick spin (1000 rpm, 10 sec) to bring media and cells to the bottom of plate. The plates were covered with SealMate film to avoid evaporation and placed in 37° C. incubator for approximately 18-24 hours.
Read plates: Equilibrate appropriate amount of Promega OneGlo luciferase reagent to room temperature. Remove the plates from incubator and add 25 uL of OneGlo reagent/well by multiple channel pipette and read the plates with Tecan F500 luminometer within 3 minutes.
The ability of the compounds disclosed herein to inhibit GR activity was quantified and the respective IC50 value was determined. Table 3 provides the cellular IC50 values of various substituted steroidal compounds disclosed herein.

Chain of GR (P04150 whole entry): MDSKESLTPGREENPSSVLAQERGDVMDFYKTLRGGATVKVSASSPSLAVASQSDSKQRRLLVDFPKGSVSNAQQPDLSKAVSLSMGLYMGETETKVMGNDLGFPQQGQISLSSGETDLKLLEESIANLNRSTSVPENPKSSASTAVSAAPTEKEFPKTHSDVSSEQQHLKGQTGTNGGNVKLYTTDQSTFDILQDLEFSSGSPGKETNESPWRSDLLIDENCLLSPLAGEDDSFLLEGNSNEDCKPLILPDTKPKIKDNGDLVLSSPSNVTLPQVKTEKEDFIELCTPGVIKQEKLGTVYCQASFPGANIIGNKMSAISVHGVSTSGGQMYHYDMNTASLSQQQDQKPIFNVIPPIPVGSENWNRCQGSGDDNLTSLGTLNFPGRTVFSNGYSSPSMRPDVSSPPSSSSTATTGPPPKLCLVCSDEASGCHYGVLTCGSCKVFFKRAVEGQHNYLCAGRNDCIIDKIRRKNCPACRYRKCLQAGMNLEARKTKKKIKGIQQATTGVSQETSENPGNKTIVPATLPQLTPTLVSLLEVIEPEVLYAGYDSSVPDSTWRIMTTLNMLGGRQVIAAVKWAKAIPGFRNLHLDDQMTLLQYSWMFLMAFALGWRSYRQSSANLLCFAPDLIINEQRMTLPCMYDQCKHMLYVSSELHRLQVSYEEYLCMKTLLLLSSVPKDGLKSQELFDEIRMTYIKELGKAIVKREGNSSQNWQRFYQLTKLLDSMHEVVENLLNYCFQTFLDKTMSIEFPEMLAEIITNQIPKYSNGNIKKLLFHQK

As a reminder, the IC50 is the point on the concentration scale where inhibition reaches its midpoint. Low readings indicate greater potency, high ones weaker potency. Consider `COC1CN(c2ccc([C@H]3C[C@@]4(C)[C@@H](CC[C@@]4(O)C#CC(C)(C)OC)[C@@H]4CCC5=CC(=O)CCC5=C43)cc2)C1`, for which the IC50 is over 100 nM.

`COc1ccc([C@H]2C[C@@]3(C)[C@@H](CC[C@@]3(O)C#CC(C)(C)C)[C@@H]3CCC4=CC(=O)CCC4=C32)cc1` displayed an IC50 of at most 100 nM.

`CC(C)(C)C#C[C@]1(O)CC[C@H]2[C@@H]3CCC4=CC(=O)CCC4=C3[C@@H](c3ccc(N4CCS(=O)(=O)CC4)cc3)C[C@@]21C`: the IC50 is at most 100 nM.

With `Cc1c(F)cc([C@H]2C[C@@]3(C)[C@@H](CC[C@@]3(O)C#CC(F)(F)F)[C@@H]3CCC4=CC(=O)CCC4=C32)cc1F`, the IC50 was over 100 nM.

As to `CC(C)C#C[C@]1(O)CC[C@H]2[C@@H]3CCC4=CC(=O)CCC4=C3[C@@H](c3ccc(N(C)C)c(F)c3)C[C@@]21C`, the 50% inhibitory concentration (IC50) is at most 100 nM.

`CC(C)N(C)c1ccc([C@H]2C[C@@]3(C)[C@@H](CC[C@@]3(O)C#CC3(C)COC3)[C@@H]3CCC4=CC(=O)CCC4=C32)cc1` registered an IC50 of at most 100 nM.

`CC(C)C#C[C@]1(O)CC[C@H]2[C@@H]3CCC4=CC(=O)CCC4=C3[C@@H](c3c(F)cc(N4CCOCC4)cc3F)C[C@@]21C` [drawing 294] showed an IC50 of at most 100 nM.

Turning to `CC(C)C#C[C@]1(O)CC[C@H]2[C@@H]3CCC4=CC(=O)CCC4=C3[C@@H](c3cc(F)c(C(C)C)c(F)c3)C[C@@]21C` [drawing 299], the IC50 was at most 100 nM.

`COC(C)(C)C#C[C@]1(O)CC[C@H]2[C@@H]3CCC4=CC(=O)CCC4=C3[C@@H](c3ccc(C(C)(C)C)cc3)C[C@@]21C` displayed an IC50 of at most 100 nM.

Regarding `CN(C)c1cc(F)c([C@H]2C[C@@]3(C)[C@@H](CC[C@@]3(O)C#CC(F)(F)F)[C@@H]3CCC4=CC(=O)CCC4=C32)c(F)c1`, the IC50 is at most 100 nM.

In turn, `CC(C)(C)C#C[C@]1(O)CC[C@H]2[C@@H]3CCC4=CC(=O)CCC4=C3[C@@H](c3cc(F)c(-c4cncnc4)cc3F)C[C@@]21C` registered a concentration for half-maximal inhibition (IC50) of at most 100 nM.

The molecule `CN(C)c1ccc([C@H]2C[C@@]3(C)[C@@H](CC[C@@]3(O)C#Cc3ccccn3)[C@@H]3CCC4=CC(=O)CCC4=C32)cc1` showed an IC50 of at most 100 nM.

Take `CN(CC(F)(F)F)c1ccc([C@H]2C[C@@]3(C)[C@@H](CC[C@@]3(O)C#CC(C)(C)C)[C@@H]3CCC4=CC(=O)CCC4=C32)cc1`: the IC50 is at most 100 nM.

`CN(C)c1ccc([C@H]2C[C@@]3(C)[C@@H](CC[C@@]3(O)C#Cc3ccc(C(C)(C)C)cc3)[C@@H]3CCC4=CC(=O)CCC4=C32)cc1` showed an IC50 of over 100 nM.

With `C[C@@H]1C[C@H]2[C@@H]3CCC4=CC(=O)CCC4=C3[C@@H](c3ccc(N(C)C)cc3)C[C@]2(C)[C@]1(O)C#CC(C)(C)C` [drawing 335], the 50% inhibitory concentration (IC50) was over 100 nM.

Consider `CC(C)Oc1cccc([C@H]2C[C@@]3(C)[C@@H](CC[C@@]3(O)C#CC(F)(F)F)[C@@H]3CCC4=CC(=O)CCC4=C32)c1`, for which the IC50 was over 100 nM.

`Cc1ccc(-c2cc(F)c([C@H]3C[C@@]4(C)[C@@H](CC[C@@]4(O)C#CC(C)(C)C)[C@@H]4CCC5=CC(=O)CCC5=C43)cc2F)cn1`: the IC50 was over 100 nM.

The molecule `CCN(c1ccc([C@H]2C[C@@]3(C)[C@@H](CC[C@@]3(O)C#CC(C)(C)C)[C@@H]3CCC4=CC(=O)CCC4=C32)cc1)C(C)C` had an IC50 of over 100 nM.

Molecule `[2H]C([2H])([2H])C#C[C@]1(O)CC[C@H]2[C@@H]3CCC4=CC(=O)CCC4=C3[C@@H](c3cc(F)c(C)c(F)c3)C[C@@]21C` returned an IC50 of at most 100 nM.

Regarding `CC(C)(C)C#C[C@]1(O)CC[C@H]2[C@@H]3CCC4=CC(=O)CCC4=C3[C@@H](c3ccc(N)cc3)C[C@@]21C`, the half-maximal inhibitory concentration (IC50) was over 100 nM.

The molecule `CC(C)C#C[C@]1(O)CC[C@H]2[C@@H]3CCC4=CC(=O)CCC4=C3[C@@H](c3c(F)cc(N4CCCC4)cc3F)C[C@@]21C` showed a concentration for half-maximal inhibition (IC50) of at most 100 nM.

With `Cc1c(F)cc([C@H]2C[C@@]3(C)[C@@H](CC[C@@]3(O)C#CC(C)(C)C)[C@@H]3CCC4=CC(=O)CCC4=C32)cc1F`, the IC50 was over 100 nM.

`Cc1c(F)cc([C@H]2C[C@@]3(C)[C@@H](CC[C@@]3(O)C#Cc3ccc(S(C)(=O)=O)cc3)[C@@H]3CCC4=CC(=O)CCC4=C32)cc1F` [drawing 293] displayed an IC50 of at most 100 nM.

With `CC(C)(C)C#C[C@]1(O)CC[C@H]2[C@@H]3CCC4=CC(=O)CCC4=C3[C@@H](c3ccc4c(c3)OCO4)C[C@@]21C` [drawing 331], the IC50 is at most 100 nM.

Consider `CN(C(=O)CO)c1ccc([C@H]2C[C@@]3(C)[C@@H](CC[C@@]3(O)C#CC(C)(C)C)[C@@H]3CCC4=CC(=O)CCC4=C32)cc1`, for which the IC50 was over 100 nM.

With `CN(C)c1cc([C@H]2C[C@@]3(C)[C@@H](CC[C@@]3(O)C#CC(F)(F)F)[C@@H]3CCC4=CC(=O)CCC4=C32)ccc1Cl`, the IC50 was over 100 nM.

As to `CC(C)(C)C#C[C@]1(O)CC[C@H]2[C@@H]3CCC4=CC(=O)CCC4=C3[C@@H](c3cccc(C4CC4)c3)C[C@@]21C` [drawing 279], the IC50 is over 100 nM.

In turn, `CN(C)c1ccc([C@H]2C[C@@]3(C)[C@@H](CC[C@@]3(O)C#CC(C)(C)C)[C@@H]3CCC4=CC(=O)CCC4=C32)c(F)c1F` had an IC50 of at most 100 nM.

`CN(C)c1cc(F)c([C@H]2C[C@@]3(C)[C@@H](CC[C@@]3(O)C#CC3CC3)[C@@H]3CCC4=CC(=O)CCC4=C32)cc1F` had an IC50 of at most 100 nM.

In turn, `COc1cc([C@H]2C[C@@]3(C)[C@@H](CC[C@@]3(O)C#CC(C)(C)C)[C@@H]3CCC4=CC(=O)CCC4=C32)ccc1N(C)C` yielded an IC50 of over 100 nM.

Molecule `CCC#C[C@]1(O)CC[C@H]2[C@@H]3CCC4=CC(=O)CCC4=C3[C@@H](c3ccc4c(c3)OCCO4)C[C@@]21C` [drawing 324] gave an IC50 of at most 100 nM.

Turning to `CC(C)C#C[C@]1(O)CC[C@H]2[C@@H]3CCC4=CC(=O)CCC4=C3[C@@H](c3ccc4c(c3)OCCO4)C[C@@]21C`, the concentration for half-maximal inhibition (IC50) was at most 100 nM.

As to `Cc1ccc([C@H]2C[C@@]3(C)[C@@H](CC[C@@]3(O)C#CC(C)(C)C)[C@@H]3CCC4=CC(=O)CCC4=C32)cc1`, the half-inhibitory concentration (IC50) is at most 100 nM.

Turning to `Cc1ccc([C@H]2C[C@@]3(C)[C@@H](CC[C@@]3(O)C#CC(C)(C)C)[C@@H]3CCC4=CC(=O)CCC4=C32)cc1F`, the IC50 was at most 100 nM.

In turn, `CN(C)c1ccc([C@H]2C[C@@]3(C)[C@@H](CC[C@@]3(O)C#CC(C)(C)C)[C@@H]3CCC4=CC(=O)CCC4=C32)cc1F` [drawing 284] displayed an IC50 of at most 100 nM.

`CC(C)(C)C#C[C@]1(O)CC[C@H]2[C@@H]3CCC4=CC(=O)CCC4=C3[C@@H](c3ccc4c(c3)OCCO4)C[C@@]21C` had an IC50 of at most 100 nM.

In the case of `[2H]C([2H])([2H])N(c1ccc([C@H]2C[C@@]3(C)[C@@H](CC[C@@]3(O)C#CC(C)(C)C)[C@@H]3CCC4=CC(=O)CCC4=C32)cc1)C([2H])([2H])[2H]`, the IC50 is at most 100 nM.

`COC(C)(C)C#C[C@]1(O)CC[C@H]2[C@@H]3CCC4=CC(=O)CCC4=C3[C@@H](c3ccc(N4CCS(=O)(=O)CC4)cc3)C[C@@]21C` yielded an IC50 of over 100 nM.

In turn, `COCCN(C)c1ccc([C@H]2C[C@@]3(C)[C@@H](CC[C@@]3(O)C#CC(C)(C)C)[C@@H]3CCC4=CC(=O)CCC4=C32)cc1` yielded an IC50 of at most 100 nM.

On to `CC(C)(C)C#C[C@]1(O)CC[C@H]2[C@@H]3CCC4=CC(=O)CCC4=C3[C@@H](c3ccc(C(C)(C)CO)cc3)C[C@@]21C`, for which the IC50 was at most 100 nM.

Molecule `COC(C)(C)C#C[C@]1(O)CC[C@H]2[C@@H]3CCC4=CC(=O)CCC4=C3[C@@H](c3ccc(N4CCN(C(=O)CO)CC4)cc3)C[C@@]21C` registered an IC50 of over 100 nM.

The molecule `CN(C)c1ccc([C@H]2C[C@@]3(C)[C@@H](CC[C@@]3(O)C#Cc3ccc(S(C)(=O)=O)cc3)[C@@H]3CCC4=CC(=O)CCC4=C32)cc1` [drawing 352] gave an IC50 of at most 100 nM.

In the case of `CC(C)(C)C#C[C@]1(O)CC[C@H]2[C@@H]3CCC4=CC(=O)CCC4=C3[C@@H](c3ccc(C4(C)COC4)cc3)C[C@@]21C`, the IC50 is at most 100 nM.

`CN(C)c1c(F)cc([C@H]2C[C@@]3(C)[C@@H](CC[C@@]3(O)C#CC(C)(C)C)[C@@H]3CCC4=CC(=O)CCC4=C32)cc1F` came in with an IC50 of at most 100 nM.

`CC(C)N(C)c1ccc([C@H]2C[C@@]3(C)[C@@H](CC[C@@]3(O)C#Cc3ccc(S(C)(=O)=O)cc3)[C@@H]3CCC4=CC(=O)CCC4=C32)cc1` displayed a 50% inhibitory concentration (IC50) of at most 100 nM.

`CC(C)(C)C#C[C@]1(O)CC[C@H]2[C@@H]3CCC4=CC(=O)CCC4=C3[C@@H](c3ccc(N4CCCC4)cc3)C[C@@]21C` [drawing 276] registered an IC50 of at most 100 nM.

In turn, `CN(C)c1ccc([C@H]2C[C@@]3(C)[C@@H](CC[C@@]3(O)C#Cc3ccccc3)[C@@H]3CCC4=CC(=O)CCC4=C32)cc1` [drawing 266] gave an IC50 of at most 100 nM.

The molecule `CC(=O)N1CCN(c2ccc([C@H]3C[C@@]4(C)[C@@H](CC[C@@]4(O)C#CC(C)(C)C)[C@@H]4CCC5=CC(=O)CCC5=C43)cc2)CC1` came in with a concentration for half-maximal inhibition (IC50) of at most 100 nM.
